Test results reported in PMC11671411 (Oncology Research, 2024).

Molecular target: T1, PI3KCD (Homo sapiens, UniProt O00329)
T1 construct: gene PIK3CD
Assay: PI 3-Kinase (human) HTRF enzyme assay with the PI3KCD isoform
Type: biochemical

T1 sequence (O00329 whole entry): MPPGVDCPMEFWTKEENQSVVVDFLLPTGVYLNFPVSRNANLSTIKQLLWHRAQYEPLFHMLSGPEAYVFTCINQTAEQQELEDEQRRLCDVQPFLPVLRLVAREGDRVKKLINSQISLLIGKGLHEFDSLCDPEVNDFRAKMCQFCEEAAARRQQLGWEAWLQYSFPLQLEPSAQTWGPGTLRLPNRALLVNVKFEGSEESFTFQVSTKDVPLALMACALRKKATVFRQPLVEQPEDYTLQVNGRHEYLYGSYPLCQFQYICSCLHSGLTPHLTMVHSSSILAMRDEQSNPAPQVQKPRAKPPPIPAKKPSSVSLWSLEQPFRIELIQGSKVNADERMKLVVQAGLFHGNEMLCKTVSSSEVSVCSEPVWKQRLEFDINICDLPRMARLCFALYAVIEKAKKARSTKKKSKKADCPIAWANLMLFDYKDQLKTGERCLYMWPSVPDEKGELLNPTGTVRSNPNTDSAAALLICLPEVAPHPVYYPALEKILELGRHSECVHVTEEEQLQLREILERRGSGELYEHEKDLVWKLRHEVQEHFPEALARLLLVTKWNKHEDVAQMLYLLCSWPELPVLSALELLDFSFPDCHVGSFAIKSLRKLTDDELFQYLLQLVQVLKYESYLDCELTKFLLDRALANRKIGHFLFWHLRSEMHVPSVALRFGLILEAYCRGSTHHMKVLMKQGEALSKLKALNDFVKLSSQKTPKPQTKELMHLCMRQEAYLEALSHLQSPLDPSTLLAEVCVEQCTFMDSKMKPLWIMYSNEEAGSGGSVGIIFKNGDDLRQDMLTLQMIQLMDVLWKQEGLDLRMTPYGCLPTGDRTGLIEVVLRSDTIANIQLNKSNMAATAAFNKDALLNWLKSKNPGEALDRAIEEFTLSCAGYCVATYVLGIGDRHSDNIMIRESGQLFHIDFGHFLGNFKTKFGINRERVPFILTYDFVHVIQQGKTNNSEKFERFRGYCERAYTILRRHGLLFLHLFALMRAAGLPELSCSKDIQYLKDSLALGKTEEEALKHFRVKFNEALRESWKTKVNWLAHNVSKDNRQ

c1ccc2c(c1)c1ccccc1c1nc3c4ccccc4c4ccccc4c3nc21 [SBL-JP-0004, tetrabenzo[a,c,h,j]phenazine]
IC50: 201 nM
